ChEMBL document CHEMBL3885881, “DrugMatrix”
“And” between values parts separate entries of the source, which are not always exact repeats. Identical values can stand only once.

Species: Rattus norvegicus
Experiment: DrugMatrix - Regimen: Daily Repeat
Assay type: toxicity, organism-based, Sprague-Dawley
Parameters: regimen Daily Repeat, gender Male, age 6-8 weeks
Conditions: in vivo, po, 0 mg/kg, route oral GAVAGE, dose level Control, vehicle 100 % SALINE; for ABSOLUTE BASOPHIL / ABSOLUTE LYMPHOCYTE / ABSOLUTE SEGMENTED NEUTROPHIL / BASOPHIL / EOSINOPHIL / ERYTHROCYTE COUNT / HEMATOCRIT / HEMOGLOBIN / LEUKOCYTE COUNT / LYMPHOCYTE / MEAN CORPUSCULAR HEMOGLOBIN / MEAN CORPUSCULAR HEMOGLOBIN CONCENTRATION / MONOCYTE / NEUTROPHIL / NUCLEATED RED BLOOD CELLS / PLATELET COUNT / ABSOLUTE EOSINOPHIL / ABSOLUTE MONOCYTE: tissue Blood
[1] = 72 h, tissue Plasma, time 3 day
[2] = 120 h, tissue Plasma, time 5 day

Q: What does the source list for `CN(C)C=O` [DIMETHYLFORMAMIDE]?
A: ABSOLUTE BASOPHIL (72 h, time 3 day): 0 CELLS/uL; ABSOLUTE LYMPHOCYTE (72 h, time 3 day): 8960.83 CELLS/uL and 11922.83 CELLS/uL; ABSOLUTE SEGMENTED NEUTROPHIL (72 h, time 3 day): 635.67 CELLS/uL and 1526.33 CELLS/uL; BASOPHIL (72 h, time 3 day): 0%; EOSINOPHIL (72 h, time 3 day): 0% and 0.5%; ERYTHROCYTE COUNT (72 h, time 3 day): 5.09 x10E6/uL and 5.62 x10E6/uL; HEMATOCRIT (72 h, time 3 day): 31.8% and 37.17%; HEMOGLOBIN (72 h, time 3 day): 12.42 G/DL and 13.53 G/DL; LEUKOCYTE COUNT (72 h, time 3 day): 9.7 x10E3/uL and 13.92 x10E3/uL; LYMPHOCYTE (72 h, time 3 day): 92.33% and 86.17%; MEAN CORPUSCULAR HEMOGLOBIN (72 h, time 3 day): 24.4 pg and 24.07 pg; MEAN CORPUSCULAR HEMOGLOBIN CONCENTRATION (72 h, time 3 day): 39.07 G/DL and 36.42 G/DL; MONOCYTE (72 h, time 3 day): 1% and 3%; NEUTROPHIL (72 h, time 3 day): 6.67% and 10.33%; NUCLEATED RED BLOOD CELLS (72 h, time 3 day): 0 /100WBC; PLATELET COUNT (72 h, time 3 day): 466.5 x10E3/uL and 1107 x10E3/uL; ALANINE AMINOTRANSFERASE [1]: 83.33 u/L and 45.33 u/L; ALBUMIN [1]: 4.33 G/DL and 4.3 G/DL; ALKALINE PHOSPHATASE [1]: 340.5 u/L and 321.33 u/L; ASPARTATE AMINOTRANSFERASE [1]: 189.83 u/L and 77.33 u/L; BLOOD UREA NITROGEN [1]: 15.83 mg/dL and 14.33 mg/dL; CARBON DIOXIDE [1]: 38 mmol/L and 32.33 mmol/L; CHLORIDE [1]: 96.83 MEQ/L and 99.67 MEQ/L; CHOLESTEROL [1]: 72.5 mg/dL and 82.33 mg/dL; CREATINE PHOSPHOKINASE [1]: 370.67 u/L and 205.5 u/L; CREATININE [1]: 0.28 mg/dL and 0.19 mg/dL; GLUCOSE [1]: 182.83 mg/dL and 150.83 mg/dL; LIPASE [1]: 9.83 u/L and 10.83 u/L; PHOSPHORUS [1]: 11.32 mg/dL and 10.9 mg/dL; SODIUM [1]: 145.12 MEQ/L and 145.15 MEQ/L; TOTAL BILIRUBIN [1]: 0.2 mg/dL and 0.12 mg/dL; TOTAL PROTEIN [1]: 6.4 G/DL and 6.22 G/DL; ABSOLUTE BASOPHIL (120 h, time 5 day): 0 CELLS/uL; ABSOLUTE EOSINOPHIL (120 h, time 5 day): 43.83 CELLS/uL; ABSOLUTE LYMPHOCYTE (120 h, time 5 day): 7316.67 CELLS/uL; ABSOLUTE MONOCYTE (120 h, time 5 day): 87.33 CELLS/uL; ABSOLUTE SEGMENTED NEUTROPHIL (120 h, time 5 day): 418.83 CELLS/uL; BASOPHIL (120 h, time 5 day): 0%; EOSINOPHIL (120 h, time 5 day): 0.33%; ERYTHROCYTE COUNT (120 h, time 5 day): 4.77 x10E6/uL; HEMATOCRIT (120 h, time 5 day): 29.93%; HEMOGLOBIN (120 h, time 5 day): 11.48 G/DL; LEUKOCYTE COUNT (120 h, time 5 day): 7.87 x10E3/uL; LYMPHOCYTE (120 h, time 5 day): 93.5%; MEAN CORPUSCULAR HEMOGLOBIN (120 h, time 5 day): 24.17 pg; MEAN CORPUSCULAR HEMOGLOBIN CONCENTRATION (120 h, time 5 day): 38.57 G/DL; MONOCYTE (120 h, time 5 day): 1%; NEUTROPHIL (120 h, time 5 day): 5.17%; NUCLEATED RED BLOOD CELLS (120 h, time 5 day): 0 /100WBC; PLATELET COUNT (120 h, time 5 day): 377.67 x10E3/uL; ALANINE AMINOTRANSFERASE [2]: 89 u/L; ALBUMIN [2]: 4.42 G/DL; ALKALINE PHOSPHATASE [2]: 275.17 u/L; ASPARTATE AMINOTRANSFERASE [2]: 204.17 u/L; BLOOD UREA NITROGEN [2]: 15.33 mg/dL; CARBON DIOXIDE [2]: 36.83 mmol/L; CHLORIDE [2]: 94.67 MEQ/L; CHOLESTEROL [2]: 92 mg/dL; CREATINE PHOSPHOKINASE [2]: 514.5 u/L; CREATININE [2]: 0.24 mg/dL; GLUCOSE [2]: 184.17 mg/dL; LACTATE DEHYDROGENASE [2]: 648.67 u/L; LIPASE [2]: 10 u/L; PHOSPHORUS [2]: 12.33 mg/dL; SODIUM [2]: 144.63 MEQ/L; TOTAL BILIRUBIN [2]: 0.18 mg/dL; TOTAL PROTEIN [2]: 6.7 G/DL; ABSOLUTE BASOPHIL ([…], time 7 day): 0 CELLS/uL; ABSOLUTE EOSINOPHIL ([…], time 7 day): 22 CELLS/uL; ABSOLUTE LYMPHOCYTE ([…], time 7 day): 11105.17 CELLS/uL; ABSOLUTE MONOCYTE ([…], time 7 day): 258.17 CELLS/uL; ABSOLUTE SEGMENTED NEUTROPHIL ([…], time 7 day): 881.33 CELLS/uL; BASOPHIL ([…], time 7 day): 0%; EOSINOPHIL ([…], time 7 day): 0.17%; ERYTHROCYTE COUNT ([…], time 7 day): 5.29 x10E6/uL; HEMATOCRIT ([…], time 7 day): 34.03%; HEMOGLOBIN ([…], time 7 day): 13.67 G/DL; LEUKOCYTE COUNT ([…], time 7 day): 12.27 x10E3/uL; LYMPHOCYTE ([…], time 7 day): 90.83%; MEAN CORPUSCULAR HEMOGLOBIN ([…], time 7 day): 25.9 pg; MEAN CORPUSCULAR HEMOGLOBIN CONCENTRATION ([…], time 7 day): 40.18 G/DL; MONOCYTE ([…], time 7 day): 2.17%; NEUTROPHIL ([…], time 7 day): 6.83%; NUCLEATED RED BLOOD CELLS ([…], time 7 day): 0 /100WBC; PLATELET COUNT ([…], time 7 day): 1159.83 x10E3/uL; ALANINE AMINOTRANSFERASE ([…], tissue Plasma, time 7 day): 45.83 u/L; ALBUMIN ([…], tissue Plasma, time 7 day): 4.1 G/DL; ALKALINE PHOSPHATASE ([…], tissue Plasma, time 7 day): 240 u/L; ASPARTATE AMINOTRANSFERASE ([…], tissue Plasma, time 7 day): 88.67 u/L; BLOOD UREA NITROGEN ([…], tissue Plasma, time 7 day): 13.67 mg/dL; CARBON DIOXIDE ([…], tissue Plasma, time 7 day): 31.83 mmol/L; CHLORIDE ([…], tissue Plasma, time 7 day): 96.83 MEQ/L; CHOLESTEROL ([…], tissue Plasma, time 7 day): 71.17 mg/dL; CREATINE PHOSPHOKINASE ([…], tissue Plasma, time 7 day): 202.5 u/L; CREATININE ([…], tissue Plasma, time 7 day): 0.22 mg/dL
